Experiment [1] deals with A. baumannii ATCC 19606. It is filed as cell-based. The note with it: ATCC 19606, 22 h. As to the method:
(§1) MICs of compounds were determined following CLSI guidelines using the microbroth dilution method in polypropylene plates. Selected Gram-negative bacterial strains (see Table S2 for strain sources) were taken from glycerol stocks and grown overnight on blood agar. Individual colonies were selected and grown in Tryptic Soy Broth (TSB) to an OD600 of 0.5. Compounds were diluted in Mueller Hinton Broth (MHB) supplemented with Mg^2+ and Ca^2+ at final concentrations of 12 and 20 mg/L, respectively (CAMHB). 50 μL was used for each well, and compounds were assessed in triplicates. Bacterial culture was diluted in CAMHB to 10^6 CFU/mL, yielding 5 × 10^5 CFU/mL upon addition of 50 μL of culture to 50 μL of compound solution. Positive and negative (sterility) controls were present on each plate. Plates were sealed with a semipermeable membrane and incubated for 22 h (A. baumannii) or 18 h (other strains) under shaking at 37 °C.

For experiment [2], the system named is E. coli ATCC 25922. It counts as cell-based. The following applies: ATCC 25922, 18 h. The protocol: as §1
Experiment [3] concerns E. coli BW25113. It counts as cell-based. The note with it: BW25113, 18 h. The protocol:
as §1

For experiment [4], the system named is E. coli JW3594 (ΔwaaD). It counts as cell-based. The following applies: truncated LPS, CLSI microbroth dilution, CAMHB, 18 h, 37 °C, triplicate. As to the method: as §1
Background: In broth dilution the organism is exposed to a series of concentrations in liquid medium.

The subject of experiment [5] is E. coli JW3596 (ΔwaaC). It counts as cell-based. The note with it: truncated LPS, CLSI microbroth dilution, CAMHB, 18 h, 37 °C, triplicate. As to the method: as §1
Experiment [6] has as its system E. coli mcr-1. It counts as cell-based. The note with it: CLSI microbroth dilution, CAMHB, 18 h, 37 °C, triplicate. As to the method: as §1
Experiment [7] relates to K. pneumoniae ATCC 13883. It counts as cell-based. The note with it: ATCC 13883, 18 h. As to the method: as §1
Experiment [8] concerns P. aeruginosa 2018-007. It counts as cell-based. The following applies: 2018-007, 18 h. The protocol:
as §1

In experiment [9] the test system is P. aeruginosa ATCC 10145. It counts as cell-based. The note with it: ATCC 10145, 18 h. The protocol: as §1
In experiment [10] the test system is P. aeruginosa ATCC 27853. It counts as cell-based. The following applies: ATCC 27853, 18 h. As to the method: as §1
In experiment [11] the test system is P. aeruginosa NRZ03961. It is filed as cell-based. The note with it: NRZ03961, 18 h. As to the method:
as §1

In experiment [12] the test system is polymyxin-resistant (mcr-1 positive) E. coli. In words: microbe, parasite or virus in culture. It counts as cell-based. The following applies: E. coli mcr-1, checkerboard. As to the method:
(§2) Selected Gram-negative bacterial strains were taken from glycerol stocks and grown overnight on blood agar. A single colony was inoculated in TSB broth at 37 °C until an optical density of 0.5 at 600 nm (OD600) was reached. The bacterial suspension was diluted in freshly prepared CAMHB to 10^6 CFU/mL. Compounds were diluted along the plate, using 25 μL of CAMHB for each dilution. Antibiotic concentrations were prepared separately in a multiwell reservoir, including a control without antibiotic. Of each antibiotic stock, 25 μL was added to three columns to obtain triplicates for every condition. To each 50 μL containing well was then added 50 μL of the 10^6 CFU/mL bacterial suspension, and the plates were sealed with breathable seals. After incubation for 18 h at 37 °C while shaking, the seals were removed and the density of the bacterial suspensions was measured at 600 nm (OD600) using a Tecan Spark plate reader. The OD600 values were transformed to a 2D gradient with the negative control as the minimum and the positive control as the maximum. The FICI was calculated using the following equation: [drawing 1] with MSCant and MSCcomp indicating the optimal synergistic concentration of antibiotic and compound and MICant and MICcomp, the corresponding MICs of the individual compounds. An FICI ≤ 0.5 indicates synergy.[48]

Experiment [13] concerns polymyxin-sensitive E. coli ATCC 25922. In words: microbe, parasite or virus in culture. It is filed as cell-based. As to the method:
as §2

In experiment [14] the test system is E. coli ATCC 25922 (smooth LPS). In words: NPN uptake assay (outer membrane disruption). It counts as cell-based. The note with it: NPN fluorescence after 1 h at RT, 5 mM HEPES pH 7.2 + 20 mM glucose, triplicates, result in words. The protocol:
(§3) Bacteria were taken from glycerol stocks and grown in TSB overnight. Cultures were diluted either 50 or 100 times in Lysogeny Broth (LB) and grown at 37 °C to an OD600 of 0.5. Test compounds were prepared in HEPES buffer (5 mM, pH 7.2 + 20 mM glucose) and serially diluted (25 μL per well) on 1/2 the area of black 96-well plates with a transparent bottom. N-Phenyl-1-naphthylamine (NPN) was dissolved in acetone (0.5 mM) and diluted to 40 μM in HEPES buffer (5 mM, pH 7.2 + 20 mM glucose). 25 μL of the NPN solution was added to each well. The bacterial suspension was spin down (1000g, 10 min), and the remaining cell pellet was resuspended in half the original volume of HEPES buffer (5 mM, pH 7.2 + 20 mM glucose). 50 μL of bacterial suspension was added to each well. NPN fluorescence was measured after 1 h of incubation at RT with λex 355 ± 20 nm and λem 420 ± 20 nm. The measured fluorescence signal was corrected for NPN fluorescence in the absence of compounds (bacteria in buffer + NPN) and presented as relative fluorescence units (RFUs).

For experiment [15], the system named is E. coli BW25113 (rough LPS). Kind of experiment: NPN uptake assay (outer membrane disruption). It counts as cell-based. The note with it: NPN fluorescence after 1 h at RT, 5 mM HEPES pH 7.2 + 20 mM glucose, triplicates, result in words. The protocol:
as §3

The test system of experiment [16] is polymyxin-resistant, mcr-1 positive E. coli. Kind of experiment: NPN uptake assay (outer membrane disruption). It counts as cell-based. The note with it: E. coli mcr-1 positive; NPN fluorescence after 1 h at RT, highest concentration tested 32 μg/mL, triplicates; result in words. The protocol:
as §3

Experiment [17] relates to LPS from E. coli (O55:B5). Kind of experiment: Isothermal titration calorimetry (ITC), LPS binding. The following applies: compound (1 mM) into LPS (20 µM), 20 mM HEPES pH 7, 37 °C, mean and SD of three experiments. As to the method:
Stock solutions of LPS (10 mg/mL, 0.5 mM) were prepared in 20 mM HEPES at pH 7 by suspension, sonication, and temperature cycling between 4 and 60 °C and stored overnight prior to use. LPS from E. coli (O55:B5) was used. Lipopeptide solutions (1 mM in 20 mM HEPES, pH 7) were titrated into a suspension of LPS (0.020 mM) in the same buffer. Control titrations included the titration of peptide into buffer and buffer into the LPS suspension to determine the corresponding heat of dilution. All binding experiments were performed using a MicroCal PEAQ-ITC Automated microcalorimeter (Malvern Panalytical Ltd., Malvern, UK). The samples were equilibrated to 37 °C prior to measurement. The titrations were conducted at 37 °C under constant stirring at 750 rpm. Each experiment consisted of an initial injection of 0.3 μL followed by 25 separate injections of 1.5 μL into the sample cell of 200 μL. The time between each injection was 180 s, and the measurements were performed with the reference power set at 5 μcal s^–1 and the feedback mode set at “low”. For all calculations performed, an estimated molecular weight of 20 kDa for LPS was applied. The calorimetric data thus obtained were analyzed using MicroCal PEAQ-ITC Analysis Software Version 1.20 (Malvern Panalytical Ltd., Malvern, UK), where the integrated heat signal is corrected for the heat of dilution of the titrant.
On the technique in general: In ITC the heat of successive injections is recorded.

Each structure is given as a SMILES string. Converted amounts (≈) assume the structure as drawn. “And” between values parts separate entries of the source, which are not always exact repeats. Equal entries are not always repeated. Positions of bridges follow the written chain, without caps; N, C: chain ends. Non-standard residues stand in square brackets, D forms with d. Residues, ends and D or L forms follow the SMILES beside them. *: point of attachment. Heptanoyl = CCCCCCC(=O)*; Dab = NCC[C@H](N)C(=O)O

Take `CCCCCCC(=O)N[C@@H](CCN)C(=O)N[C@H](C(=O)N[C@@H](CCN)C(=O)N[C@H]1CCNC(=O)[C@H]([C@@H](C)O)NC(=O)[C@H](CCN)NC(=O)[C@H](CCN)NC(=O)[C@H](CC(C)C)NC(=O)[C@@H](Cc2ccccc2)NC(=O)[C@H](CCN)NC1=O)[C@@H](C)O` [PmxB4, polymyxin B4] (Heptanoyl-[Dab]T[Dab][Dab][Dab][dF]L[Dab][Dab]T; lactam 4-C): the MIC in experiment [1] amounted to 0.5 mg/L (≈ 0.425 µM); in [2], 0.25 mg/L (≈ 0.213 µM); in [3] it was 0.5 mg/L (≈ 0.425 µM); in [4] it was 0.06 mg/L (≈ 0.051 µM); in experiment [5] it was 0.06 mg/L (≈ 0.051 µM); in experiment [6], 4 mg/L (≈ 3.4 µM). Further, the MIC in experiment [7] is 0.125 mg/L (≈ 0.106 µM); in [8] it was 0.5 mg/L (≈ 0.425 µM); in [9], 0.25 mg/L (≈ 0.213 µM); in experiment [10], 0.25 mg/L (≈ 0.213 µM); in [11] it was 0.25 mg/L (≈ 0.213 µM). Besides, the MIC alone in experiment [12] (substance alone) was 8 mg/L; in [13] (ATCC 25922, 18 h) it was 1 mg/L; in [13] (E. coli ATCC 25922, checkerboard, substance alone), 2 mg/L. In experiment [12] (combination with rifampicin, CAMHB, 18 h, 37 °C, OD600, FICI ≤ 0.5 indicates synergy), the FICI is 0.16 and 0.163. Further, the “OM disruption (NPN uptake)” value in experiment [14] is “potent OM disruption”; in experiment [15] it was “potent OM disruption”; in [16] it was “most effective OM disruption”. Further, the “ΔΔH, maximum enthalpy observed after subtraction of dilution control” value in experiment [17] is -32.9 ± 0.418 kJ/mol.

The term MIC denotes the least concentration at which growth counts as inhibited. A lower MIC goes with a more susceptible organism.

The record behind these values is article PMC9745799, “Polymyxin Stereochemistry and Its Role in Antibacterial Activity and Outer Membrane Disruption” (ACS Infectious Diseases, 2022).
